Values of other authors in US10300017B2, “Method and composition for treating cystitis” (Nanologix Research, Inc., priority 2012, dated 2019).

What was measured:
interstitial cystitis = conditions: 20 patients heparin 40,000 units, 20 patients 100 mg Elmiron, 80 mg lidocaine, 3 cc sodium bicarb
[1] = oral

fraction absorbed that reaches the circulation (administered orally)	fraction of the administered dose recovered as intact drug in urine (mean) (oral dose)	mean of an oral dose excreted in the urine (oral dose, mostly as desulfated and depolymerized metabolites)	Substance	response to therapy (symptom relief), comparison of the two intravesical solutions (interstitial cystitis)	systemic side effects [1]
6%	0.14%	6%	pentosan polysulfate [Elmiron®]	no significant difference between the two solutions	hair loss, GI intolerance, headache, rash, sleep disturbance, and vertigo
–	–	–	heparin	no significant difference between the two solutions	–
